US11149005B2, “Organic amine ester derivative drug of 2-(α-hydroxypentyl)benzoic acid” (YAOPHARMA CO., LTD., priority 2018, dated 2021)
Converted amounts (≈) assume the structure as drawn. Like-named read-outs stand apart in the source and are kept apart here.

Columns and labels:
[1] = Solubility in pH 1.0, 4.5, 6.8 buffer solutions and pure water (supersaturated solution, 37° C., HPLC); format: physicochemical; conditions: for solubility: ultrapure water, thermodynamic from solid, 37° C. water bath overnight, read-out: apparent solubility in pure water
Protocol: 1. The experiment process A pH 1.0 HCl solution, a pH 4.5 acetate buffer solution, a pH 6.8 phosphate buffer solution and 5 mL of ultrapure water are added into graduated test tubes having stoppers. Small amounts of the test samples (butyphthalide (NBP), DB-1 hydrochloride or DB-2 hydrochloride) are weighed and added in batches. After each batch of the adding, intense shaking is performed for 30 seconds (ultrasound is prohibited), the dissolving is observed at any time, and when the test samples are add so that turbid insoluble particles or liquid drops can be seen, finally proper amounts of the test samples are added. The system is placed into a 37° C. water bath and vibrated overnight, to form a supersaturated solution. The supersaturated solution is centrifuged or filtered (the adsorption should be noticed), and 100 μL is fed into HPLC to measure the concentrations of the tested medicines.

[2] = In-vivo tissue distribution in mice (heart, liver, spleen, lung, kidney, brain); parameters: species or system Kunming mice; conditions: for contents in the brain compared with the sodium salt of 2-(α-hydroxypentyl)benzoic acid (NBP): all detection time points
Protocol: (§1) 1. Animal Grouping and Dosage Regimen
(§2) 90 Kunming mice (male; 20±2 g) are randomly grouped into three groups, with 30 mice in each of the groups. The first group is the butyphthalide group, is divided into 6 subgroups (5 mice in each of the subgroups), and is administered with butyphthalide by 10 mg/kg. The secondary group is the DB-1 group, is divided into 6 subgroups (5 mice in each of the subgroups), and is administered with DB-1 of the equal moles to the butyphthalide. The third group is the DB-2 group, is divided into 6 subgroups (5 mice in each of the subgroups), and is administered with DB-2 of the equal moles to the butyphthalide. Before the experiment the mice are fasted and are free to drink water. At 5 min, 15 min, 30 min, 1 h, 2 h and 4 h, all of the groups are taken blood at the orbit and then executed, and the hearts, livers, spleens, lungs, kidneys and brains of the mice are immediately separated, washed by using normal saline, dried by using filter paper, weighed, added normal saline of a certain multiple, homogenized, placed into a −40° C. refrigerator, and refrigerated for use. The whole blood is centrifuged at 4500 r/min for 5 min, and the plasma is sucked and placed into a −40° C. refrigerator for use. The stored tissue homogenates are thawed, and 0.1 mL of each of the tissue homogenates is placed into a 0.5 mL EP tube, and added 0.2 mL of acetonitrile protein for precipitation. The precipitate is treated by vortex shocking for 5 minutes, and centrifuged at 10000 rpm for 10 min, and […] of the supernatant is fed into an LC-MS/MS system, for measuring the concentrations of the tested medicines.

[3] = Hygroscopicity: moisture absorption/weight gaining percentage at 25° C., relative humidity 75%; format: physicochemical
Protocol: 1. The Experiment Process
Three samples of each of the sodium salt of 2-(α-hydroxypentyl)benzoic acid, DB-1 and DB-2 are precisely weighed with approximately 0.2 g for each sample, and placed into weighing bottles, and the total masses of each of the samples and its weighing bottle are weighed and recorded. Then the weighing bottles are placed in a closed environment at 25° C. and at a constant humidity with the relative humidity of 75%, their masses are weighed at 6 h, 12 h, 24 h, 48 h, 96 h and 120 h, and the moisture absorption/weight gaining percentages are calculated. The moisture absorption/weight gaining percentages are calculated by using the formula as follows: moisture absorption/weight gaining percentage (%)=(sample mass after dilution—sample mass before dilution)/sample mass before dilution*100%.

[4] = Assessment on the brain targeting ability (Re, Ce, DTI relative to NBP, DAS3.2.5); format: in vivo, Kunming mice; conditions: mice
Protocol: as §2
The pharmacokinetic parameters are calculated by using the DAS3.2.5 software. Regarding the quantitative assessment on the brain targeting ability of the sodium salt of 2-(α-hydroxypentyl)benzoic acid (NBP), DB-1 hydrochloride and DB-2 hydrochloride, the following parameters are employed: relative uptake ratio (Rebrain), peak concentration ratio (Cebrain) and drug targeting index (DTIbrain), the calculating formulas of which are respectively: Re(brain, DB-1)=(AUCbrain)DB-1/(AUCbrain)NBP CeDB-1=(Cmax,brain)DB-1/(Cmax,brain)NBP DTIDB-1=(AUCbrain/AUCplasma)DB-1/(AUCbrain/AUCplasma)NBP Re(brain, DB-2)=(AUCbrain)DB-2/(AUCbrain)NBP CeDB-2=(Cmax,brain)DB-2/(Cmax,brain)NBP DTIDB-2=(AUCbrain/AUCplasma)DB-2/(AUCbrain/AUCplasma)NBP
The calculation results of the parameters can be seen in Table 2. Regarding DB-1, the brain relative uptake ratio Re is 3.64, the peak concentration ratio Ce is 2.93, and the drug targeting index DTI is 12.45. Regarding DB-2, the brain relative uptake ratio Re is 4.27, the peak concentration ratio Ce is 3.19, and the drug targeting index DTI is 18.08.

[5] = Pharmacokinetics in mice: blood concentration versus time (LC-MS/MS); format: in vivo, Kunming mice; conditions: 10 mg/kg butyphthalide or equal moles; for concentration at 5 min / concentration at 1 h: male, Kunming, mouse, plasma
Protocol: as §1, §2

[6] = 5 min after intravenous administration
[7] = 1 h after intravenous administration
[8] = pH 1.0 HCl, pH 4.5 acetate, pH 6.8 phosphate buffer, pure water

contents in the brain compared with the sodium salt of 2-(α-hydroxypentyl)benzoic acid (NBP) [2]	moisture absorption/weight gaining percentage ([3]; 6 h)	moisture absorption/weight gaining percentage ([3]; 12 h)	moisture absorption/weight gaining percentage ([3]; 24 h)	moisture absorption/weight gaining percentage ([3]; 48 h)	moisture absorption/weight gaining percentage ([3]; 96 h)	moisture absorption/weight gaining percentage ([3]; 120 h)	brain relative uptake ratio Re (AUCbrain of compound / AUCbrain of NBP) [4]	drug targeting index DTI ((AUCbrain/AUCplasma) of compound / (AUCbrain/AUCplasma) of NBP) [4]	peak concentration ratio Ce (Cmax,brain of compound / Cmax,brain of NBP) [4]	concentration at 5 min [5, 6]	concentration at 1 h [5, 7]	influence of pH on solubility [1, 8]	solubility class in words ([1]; pure water)	solubility ([1]; pure water)	SMILES	permeation of the blood-brain barrier [2]	further results
															CCCCC1OC(=O)c2ccccc21 (racemic) [Butyphthalide (NBP), dl-3-n-butylphthalide, reference compound]		apparent solubility in pure water [1]: 0.0734 ± 0.0123 mg/mL; influence of pH on solubility [1]: not obvious; solubility class in words [1]: insoluble medicine
significant greater	0.42%	0.65%	0.88%	0.93%	0.97%	1.03%	3.64	12.45	2.93	8.68 ± 1.48 µM	2.98 ± 0.534 µM	highest in the pH 1.0 HCl solution	soluble medicines	20 ± 2.98 mg/mL (≈ 62.3 mM)	CCCCC(OC(C)=O)c1ccccc1C(=O)OCCN(C)C (stereo not shown) [DB-1]	can also permeate the blood-brain barrier and enter the brain	moisture absorption/weight gaining percentage ([3]; 120 h, listed as DB-1 hydrochloride): 1.03±0.07%
significant greater	0.38%	0.54%	0.65%	0.71%	0.72%	0.76%	4.27	18.08	3.19	6.29 ± 1.2 µM	1.45 ± 0.657 µM	highest in the pH 1.0 HCl solution	soluble medicines	11.7 ± 1.89 mg/mL (≈ 32.2 mM)	CCCCC(OC(C)=O)c1ccccc1C(=O)OCCN1CCCCC1 (stereo not shown) [DB-2]	can also permeate the blood-brain barrier and enter the brain	accumulated concentration in the brain compared with DB-1 hydrochloride [2]: greater; moisture absorption/weight gaining percentage ([3]; 120 h, listed as DB-2 hydrochloride): 0.76±0.06%

SMILES	contents in the brain compared with the sodium salt of 2-(α-hydroxypentyl)benzoic acid (NBP) [2]	moisture absorption/weight gaining percentage ([3]; 6 h)	moisture absorption/weight gaining percentage ([3]; 12 h)	moisture absorption/weight gaining percentage ([3]; 24 h)	moisture absorption/weight gaining percentage ([3]; 48 h)	moisture absorption/weight gaining percentage ([3]; 96 h)	moisture absorption/weight gaining percentage ([3]; 120 h)	brain relative uptake ratio Re (AUCbrain of compound / AUCbrain of NBP) [4]	drug targeting index DTI ((AUCbrain/AUCplasma) of compound / (AUCbrain/AUCplasma) of NBP) [4]	peak concentration ratio Ce (Cmax,brain of compound / Cmax,brain of NBP) [4]	concentration at 5 min [5, 6]	concentration at 1 h [5, 7]	influence of pH on solubility [1, 8]	solubility class in words ([1]; pure water)	solubility ([1]; pure water)	permeation of the blood-brain barrier [2]	further results
CCCCC(O)c1ccccc1C(=O)[O-].[Na+] (stereo not drawn) [sodium salt of 2-(α-hydroxypentyl)benzoic acid, reference compound]							2.49±0.25%									can permeate the blood-brain barrier and enter the brain	contents in the heart, the lung and the brain ([2]; 4 h after administration): too low to be detected; blood concentration [5, 6]: 12.243 ± 1.847 µM; blood concentration [5, 7]: 0.547 ± 0.289 µM
